Data: article PMC8167799, “Discovery and Characterization of the Biflavones From Ginkgo biloba as Highly Specific and Potent Inhibitors Against Human Carboxylesterase 2” (Frontiers in Pharmacology, 2021)

Target: T1, CES2 (Homo sapiens, UniProt O00748)
T1 construct: tissue Bioreclamation IVT; […]
T1 sequence (O00748 27-559): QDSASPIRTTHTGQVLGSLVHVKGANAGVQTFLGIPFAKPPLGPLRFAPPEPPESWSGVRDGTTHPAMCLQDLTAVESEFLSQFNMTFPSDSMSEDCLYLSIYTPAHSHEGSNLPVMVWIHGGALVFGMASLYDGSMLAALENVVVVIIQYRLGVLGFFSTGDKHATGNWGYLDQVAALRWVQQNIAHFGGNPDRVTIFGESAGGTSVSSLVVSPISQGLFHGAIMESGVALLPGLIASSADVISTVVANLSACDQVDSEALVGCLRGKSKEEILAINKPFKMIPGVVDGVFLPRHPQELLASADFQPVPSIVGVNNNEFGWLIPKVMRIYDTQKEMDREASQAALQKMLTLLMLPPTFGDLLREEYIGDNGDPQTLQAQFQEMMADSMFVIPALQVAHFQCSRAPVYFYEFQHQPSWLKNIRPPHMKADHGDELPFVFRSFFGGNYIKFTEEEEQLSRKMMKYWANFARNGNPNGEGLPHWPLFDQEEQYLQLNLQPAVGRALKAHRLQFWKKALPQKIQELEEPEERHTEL
Assay: Inhibition of CES2-catalyzed FD hydrolysis in HLMs
Type: biochemical
Conditions: FD as probe substrate, logarithm of IC50 in nM
Procedure: The incubation system contains following components (total volume 200 μL): 2 μL DMSO/inhibitor, 2 μL HLMs (2 μg/ml, final concentration), […] buffer PBS (pH = =7.4).

- CES2 lg (IC50/nM): 3.72 ± 0.10
Substance: Quinatic acid
